# Laboratory results as given in paper PMC9570042, “Impairment of Nucleolin Activity and Phosphorylation by a Trachylobane Diterpene from Psiadia punctulata in Cancer Cells” (International Journal of Molecular Sciences, 2022).
# Key:
# hNcl [1] = experiment: Western blot of hNcl and phosphorylated hNcl in HeLa cells; type: cell-based, human; settings: cancer cells
# Source text: Finally, we determined whether the treatment with 12 could affect hNcl expression, phosphorylation, and cellular localization.
# hNcl [2] = experiment: hNcl distribution in cell compartments (nucleus, cytosol, membrane); type: cell-based, human; settings: HeLa cells, 20 μM, 4 h
# Protocol: The observed decrement of phosphorylated hNcl (p-hNcl) seems to be attributable to the overall decrease in its levels rather than to a modification of its cellular distribution.
# For cytosol and membrane protein extraction, the HeLa cells were seeded at 1.5 × 10^6 in 100 mm culture dishes and incubated with oridonin (5 μM) or compound 12 (20 μM) for 4 h at 37 °C. The cells were harvested in PBS and centrifuged at 4 °C for 5 min at 600× g. Subsequently, the cell pellets were resuspended in lysis buffer (20 mM Tris HCl pH 7.4, 250 mM sucrose, 1 mM dithiothreitol (DTT), protease inhibitors, and 1 mM EDTA in water), sonicated (5 s pulse–9 s pause for 2 min, amplitude 42%) and then centrifuged at 4 °C for 10 min at 5000× g. The obtained supernatants were ultra-centrifuged at 4 °C for 1 h at 100,000× g, and cytosolic extracts were obtained. Each resulting pellet was resuspended in a lysis buffer and ultracentrifuged at 4 °C for 1 h at 100,000× g. The pellets were then resuspended in 250 μL solubilization buffer (20 mM Tris HCl pH 7.4, 1 mM DTT, 1 mM EDTA, and 1% Triton X-100 in water) and left overnight on an orbital shaker at 4 °C. After that, the solution was centrifuged at 4 °C for 30 min at 50,000× g, and membrane proteins were obtained. […]
# HeLa cells [3] = experiment: Cell cycle analysis by cytofluorimetry (PI staining), HeLa cells; type: cell-based, human; settings: 10 μM and 20 μM, 48 h
# Protocol: (§1) HeLa cells were seeded at 5.0 × 10^5 in 100 mm culture dishes. The day after, the cells were treated with DMSO and 12 at 10 μM and 20 μM for 48 h. The cell cycle was evaluated by propidium iodide (PI) staining of permeabilized cells (BD FACSCalibur flow cytometer, Becton Dickinson, San Jose, CA, USA). Data from 5000 events per sample were collected. The percentages of the elements in the hypodiploid region and in G0/G1, S, and G2/M phases of the cell cycle were calculated using the CellQuest and MODFIT software, respectively. The apoptosis analysis was carried out according to the protocol described in Annexin V, FITC Apoptosis Detection Kit (Dojindo EU GmbH, Munich, Germany). The samples were detected by Flow Cytometry (BD FACSCalibur flow cytometer, Becton Dickinson, San Jose, CA, USA) and analyzed by BD FACSuite software.
# HeLa cells [4] = experiment: Apoptosis analysis, Annexin V-FITC/PI and Parp/pro-Caspase 3 cleavage, HeLa cells; type: cell-based, human
# Protocol: as §1
# hNcl [5] = biological target: T1, hNcl (Homo sapiens, UniProt P19338); experiment: CETSA-based screening of hNcl interactors in Jurkat cells; type: cell-based; design: endogenous in cells; settings: 20 μM, 2 h, heated at 55 °C, positive control oridonin
# Protocol: Based on previously published results, CETSA experiments were carried out using a Jurkat cell line using the in-cell hNcl denaturation temperature of 55 °C. The efficacy of the different testing compounds in preventing or reducing hNcl aggregation at that temperature was monitored by Western blot (Figure S1B).
# Jurkat cells were seeded at 4.0 × 10^5 cells/mL. After 24 h, the cells were treated with diterpenes or the positive control oridonin (final concentration 20 μM) and then incubated for 2 h in a CO2 incubator at 37 °C. Afterward, the cells were collected and centrifuged, and the cell pellets were washed with PBS and gently suspended in 1 mL PBS supplemented with protease inhibitors. Each cell suspension (DMSO, positive control, and treated samples) was heated in a PCR machine (Invitrogen Life Science Technologies, Waltham, MA, USA) at 55 °C for 3 min. The cells were then lysed via freezing/thawing and centrifuged at 4 °C for 20 min at 20,000× g. Subsequently, the proteins were fractionated via SDS-PAGE and analyzed by Western blot. Densitometric analysis of the bands was performed using the ImageJ software. The results were plotted on graphs reporting the ratio between the density measured for each nucleolin band and the density measured for the corresponding Gapdh band. For the histogram plot, the expression level of the nucleolin protein was normalized to the negative control.
# hNcl [6] = biological target: T1, hNcl; experiment: CETSA-based EC50 determination in HeLa cells; type: cell-based; design: endogenous in cells; host or cells: HeLa (cervical carcinoma); settings: 2 h, heated at 55.5 °C, read-out: EC50 (concentration producing half of the maximum effect on hNcl stabilization)
# Protocol: The 12/hNcl interaction was also investigated using CETSA and its effect on the hNcl denaturation temperature (Tm) in the cells was analyzed. HeLa cells incubated with 12, oridonin or the vehicle were heated to different temperatures in the 38–61 °C range, and the amount of soluble hNcl remaining at each T value was measured. […] Further CETSAs were performed using various concentrations of the compound (1–20 μM) and the amount of hNcl resisting thermal denaturation at 55.5 °C was then reported in a graph as a function of the concentration of 12 used (Figure S3 and Figure 1E). This experiment allowed the calculation of an EC50 (the compound concentration producing half of the maximum effect on hNcl stabilization) of 5 μM.
# HeLa cells were seeded at 1.0 × 10^5 in 12-well plates. The treatment was performed for 2 h using compound 12 at the following concentrations: 0.1, 0.5, 1, 2, 5, 10, 15, and 20 μM. Subsequently, the drug-containing media were removed through centrifugation; the cells were washed with PBS, aliquoted in 0.2 mL tubes, and then heated at 55.5 °C (Tm of hNcl) for 3 min. They were then lysed and analyzed, as reported above. The hNcl/Gapdh density ratio measured at the […] concentration producing the maximum stabilizing effect was set as 100%.
# T1 sequence (P19338 whole entry): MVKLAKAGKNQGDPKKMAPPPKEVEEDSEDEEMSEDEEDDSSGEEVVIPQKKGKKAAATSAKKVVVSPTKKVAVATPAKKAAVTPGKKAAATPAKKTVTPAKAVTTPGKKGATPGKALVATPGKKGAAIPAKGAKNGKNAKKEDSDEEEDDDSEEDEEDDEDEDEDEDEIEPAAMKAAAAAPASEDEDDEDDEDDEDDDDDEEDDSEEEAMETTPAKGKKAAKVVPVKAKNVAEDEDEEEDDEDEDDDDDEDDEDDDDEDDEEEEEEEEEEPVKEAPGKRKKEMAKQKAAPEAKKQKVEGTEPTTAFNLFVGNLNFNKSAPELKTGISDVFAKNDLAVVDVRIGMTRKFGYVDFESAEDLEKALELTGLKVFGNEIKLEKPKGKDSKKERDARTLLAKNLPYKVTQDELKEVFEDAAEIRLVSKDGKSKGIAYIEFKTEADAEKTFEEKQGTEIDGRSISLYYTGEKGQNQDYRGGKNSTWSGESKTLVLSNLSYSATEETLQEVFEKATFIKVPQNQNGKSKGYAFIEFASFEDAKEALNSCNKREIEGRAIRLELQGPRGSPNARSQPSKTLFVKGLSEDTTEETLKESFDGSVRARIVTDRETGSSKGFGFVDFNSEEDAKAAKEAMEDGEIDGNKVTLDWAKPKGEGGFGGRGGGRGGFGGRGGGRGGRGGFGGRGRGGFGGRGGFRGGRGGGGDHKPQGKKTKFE
structure (smiles),measurement,setting,value
"CC1(CO)CCCC2(C)C1C(O)CC13CC4C(CC12)C4(C(=O)O)C3 (stereo not drawn) [compound 12, 6,19-dihydroxy-ent-trachiloban-17-oic acid]",hNcl levels,"hNcl [1]; 20 μM, 4, 6, or 16 h",did not modify
same,phosphorylation of hNcl,"hNcl [1]; 20 μM, 4 h treatment",inhibited
same,distribution of hNcl in the different cell compartments,hNcl [2],did not show dramatic variations
same,cell accumulation in the subG0/G1 phase,HeLa cells [3],dose-dependent manner
same,increase in early apoptosis,"HeLa cells [4]; 48 h treatment, Annexin V-FITC/PI",approximately 20%
same,Parp and pro-Caspase 3 cleavage,HeLa cells [4]; Western blot,observed
same,protection of hNcl from aggregation in CETSA,hNcl [5],effect higher than that of the positive control
same,EC50,hNcl [6],5 µM
